{"source": "ChEMBL document CHEMBL5055643", "about": "“Sophoraflavanone G Resensitizes ABCG2-Overexpressing Multidrug-Resistant Non-Small-Cell Lung Cancer Cells to Chemotherapeutic Drugs” (J Nat Prod, 2021)", "key": {"[1]": {"tested_on": "NCI/ADR-RES", "experiment": "Chemo-sensitizing activity against ABCB1-overexpressing human NCI/ADR-RES cells assessed as reversal fold at 1 uM measured after 72 hrs in presence of colchicine by CCK8 assay relative to control", "format": "functional"}, "[2]": {"tested_on": "HEK293", "experiment": "Chemo-sensitizing activity against ABCB1-overexpressing human HEK293/MDR19 cells assessed as reversal fold at 1 uM measured after 72 hrs in presence of colchicine by CCK8 assay relative to control", "format": "functional"}, "[3]": {"tested_on": "KB-V1", "experiment": "Chemo-sensitizing activity against ABCB1-overexpressing human KB-V1 cells assessed as reversal fold at 5 uM measured after 72 hrs in presence of paclitaxel by CCK8 assay relative to control", "format": "functional"}, "[4]": {"tested_on": "NCI-H460", "experiment": "Chemo-sensitizing activity against human NCI-H460 cells assessed as reversal fold at 1 uM measured after 72 hrs in presence of SN-38 by CCK8 assay relative to control", "format": "functional"}, "[5]": {"tested_on": "HEK293", "experiment": "Chemo-sensitizing activity against ABCB1-overexpressing human HEK293/MDR19 cells assessed as reversal fold at 1 uM measured after 72 hrs in presence of paclitaxel by CCK8 assay relative to control", "format": "functional"}, "[6]": {"tested_on": "A549", "experiment": "Chemo-sensitizing activity against human A549 cells assessed as reversal fold at 1 uM measured after 72 hrs in presence of mitoxantrone by CCK8 assay relative to control", "format": "functional"}, "[7]": {"tested_on": "OVCAR-8", "experiment": "Chemo-sensitizing activity against human OVCAR-8 cells assessed as reversal fold at 5 uM measured after 72 hrs in presence of colchicine by CCK8 assay relative to control", "format": "functional"}, "[8]": {"tested_on": "HEK293", "experiment": "Chemo-sensitizing activity against ABCB1-overexpressing human HEK293/MDR19 cells assessed as reversal fold at 1 uM measured after 72 hrs in presence of vincristine by CCK8 assay relative to control", "format": "functional"}, "[9]": {"tested_on": "KB-V1", "experiment": "Chemo-sensitizing activity against ABCB1-oveexpressing human KB-V1 cells assessed as reversal fold at 5 uM measured after 72 hrs in presence of colchicine by CCK8 assay relative to control", "format": "functional"}, "[10]": {"tested_on": "HEK293", "experiment": "Chemo-sensitizing activity against ABCB1-overexpressing human HEK293/MDR19 cells assessed as reversal fold at 2 uM measured after 72 hrs in presence of vincristine by CCK8 assay relative to control", "format": "functional"}, "[11]": {"tested_on": "A549", "experiment": "Chemo-sensitizing activity against becatecarin-selected ABCG2-overexpressing human A549/Bec150 cells assessed as reversal fold at 5 uM measured after 72 hrs in presence of SN-38 by CCK8 assay relative to control", "format": "functional"}, "[12]": {"tested_on": "KB 3-1", "experiment": "Chemo-sensitizing activity against human KB 3-1 cells assessed as reversal fold at 5 uM measured after 72 hrs in presence of paclitaxel by CCK8 assay relative to control", "format": "functional"}, "[13]": {"tested_on": "HEK293", "experiment": "Chemo-sensitizing activity against ABCG2-overexpressing human HEK293/482R cells assessed as reversal fold at 1 uM measured after 72 hrs in presence of SN-38 by CCK8 assay relative to control", "format": "functional"}, "[14]": {"tested_on": "NCI/ADR-RES", "experiment": "Chemo-sensitizing activity against ABCB1-overexpressing human NCI/ADR-RES cells assessed as reversal fold at 1 uM measured after 72 hrs in presence of paclitaxel by CCK8 assay relative to control", "format": "functional"}, "[15]": {"tested_on": "KB-V1", "experiment": "Chemo-sensitizing activity against ABCB1-overexpressing human KB-V1 cells assessed as reversal fold at 1 uM measured after 72 hrs in presence of vincristine by CCK8 assay relative to control", "format": "functional"}, "[16]": {"tested_on": "HEK293", "experiment": "Chemo-sensitizing activity against ABCB1-overexpressing human HEK293/MDR19 cells assessed as reversal fold at 5 uM measured after 72 hrs in presence of colchicine by CCK8 assay relative to control", "format": "functional"}, "[17]": {"target": "T1, Broad substrate specificity ATP-binding cassette transporter ABCG2 (Homo sapiens, UniProt Q9UNQ0)", "T1 sequence (Q9UNQ0 whole entry)": "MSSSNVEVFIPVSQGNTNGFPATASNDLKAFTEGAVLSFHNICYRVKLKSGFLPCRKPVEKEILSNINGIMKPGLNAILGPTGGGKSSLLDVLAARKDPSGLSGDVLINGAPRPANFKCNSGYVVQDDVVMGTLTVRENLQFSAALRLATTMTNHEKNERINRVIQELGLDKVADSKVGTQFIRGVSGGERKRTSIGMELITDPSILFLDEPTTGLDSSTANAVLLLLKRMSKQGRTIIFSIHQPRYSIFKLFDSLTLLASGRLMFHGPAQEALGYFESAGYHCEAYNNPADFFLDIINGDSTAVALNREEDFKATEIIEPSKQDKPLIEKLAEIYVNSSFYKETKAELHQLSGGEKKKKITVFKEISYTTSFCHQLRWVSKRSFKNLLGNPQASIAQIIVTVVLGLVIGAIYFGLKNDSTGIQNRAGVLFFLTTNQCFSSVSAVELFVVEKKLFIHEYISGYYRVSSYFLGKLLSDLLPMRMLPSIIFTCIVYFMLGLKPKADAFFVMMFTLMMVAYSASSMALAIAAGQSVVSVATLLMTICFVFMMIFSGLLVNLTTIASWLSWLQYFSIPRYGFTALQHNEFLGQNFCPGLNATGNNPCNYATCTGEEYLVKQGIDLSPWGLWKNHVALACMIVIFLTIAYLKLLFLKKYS", "experiment": "Inhibition of ABCG2 in becatecarin-selected ABCG2-overexpressing human A549/Bec150 cells assessed as increase in intracellular mitoxantrone accumulation incubated for 1 hr in presence of mitoxantrone by flow cytometry", "format": "cell-based"}, "[18]": {"tested_on": "A549", "experiment": "Chemo-sensitizing activity against becatecarin-selected ABCG2-overexpressing human A549/Bec150 cells assessed as reversal fold at 1 uM measured after 72 hrs in presence of SN-38 by CCK8 assay relative to control", "format": "functional"}, "[19]": {"tested_on": "KB-V1", "experiment": "Chemo-sensitizing activity against ABCB1-overexpressing human KB-V1 cells assessed as reversal fold at 2 uM measured after 72 hrs in presence of paclitaxel by CCK8 assay relative to control", "format": "functional"}, "[20]": {"tested_on": "HEK293", "experiment": "Chemo-sensitizing activity against human HEK293 cells assessed as reversal fold at 2 uM measured after 72 hrs in presence of colchicine by CCK8 assay relative to control", "format": "functional"}, "[21]": {"tested_on": "A549", "experiment": "Chemo-sensitizing activity against becatecarin-selected ABCG2-overexpressing human A549/Bec150 cells assessed as reversal fold at 5 uM measured after 72 hrs in presence of mitoxantrone by CCK8 assay relative to control", "format": "functional"}, "[22]": {"tested_on": "HEK293", "experiment": "Chemo-sensitizing activity against ABCG2-overexpressing human HEK293 cells assessed as reversal fold at 2 uM measured after 72 hrs in presence of topotecan by CCK8 assay relative to control", "format": "functional"}, "[23]": {"tested_on": "HEK293", "experiment": "Cytotoxicity against human HEK293 cells assessed as reduction in cell viability measured after 72 hrs by CCK8 assay", "format": "cell-based", "conditions": "HEK293, 72 h"}, "[24]": {"experiment": "Cytotoxicity against mitoxantrone-selected ABCG2-overexpressing human NCI-H460/MX20 cells assessed as cell viability at 1 to 5 uM measured after 72 hrs by CCK8 assay", "format": "ADME, cell-based", "conditions": "dose 1-5 µM, read-out: Activity"}, "[25]": {"tested_on": "NCI/ADR-RES", "experiment": "Chemo-sensitizing activity against ABCB1-overexpressing human NCI/ADR-RES cells assessed as reversal fold at 1 uM measured after 72 hrs in presence of vincristine by CCK8 assay relative to control", "format": "functional"}, "[26]": {"tested_on": "A549", "experiment": "Chemo-sensitizing activity against becatecarin-selected ABCG2-overexpressing human A549/Bec150 cells assessed as reversal fold at 1 uM measured after 72 hrs in presence of topotecan by CCK8 assay relative to control", "format": "functional"}}}
{"compound": "C=C(C)[C@H](CC=C(C)C)Cc1c(O)cc(O)c2c1O[C@H](c1ccc(O)cc1O)CC2=O", "note": "[SOPHORAFLAVANONE G]", "values": [{"measurement": "fold change (FC)", "setting": "[1]", "result": 0.9}, {"measurement": "fold change (FC)", "setting": "[2]", "result": 0.8}, {"measurement": "fold change (FC)", "setting": "[3]", "result": 1.6}, {"measurement": "fold change (FC)", "setting": "[4]", "result": 1.3}, {"measurement": "fold change (FC)", "setting": "[5]", "result": 0.8}, {"measurement": "fold change (FC)", "setting": "[6]", "result": 1.2}, {"measurement": "fold change (FC)", "setting": "[7]", "result": 1.1}, {"measurement": "fold change (FC)", "setting": "[8]", "result": 0.7}, {"measurement": "fold change (FC)", "setting": "[9]", "result": 0.8}, {"measurement": "fold change (FC)", "setting": "[10]", "result": 0.9}, {"measurement": "fold change (FC)", "setting": "[11]", "result": 7.7}, {"measurement": "fold change (FC)", "setting": "[12]", "result": 1.1}, {"measurement": "fold change (FC)", "setting": "[13]", "result": 2.1}, {"measurement": "fold change (FC)", "setting": "[14]", "result": 1}, {"measurement": "fold change (FC)", "setting": "[15]", "result": 1}, {"measurement": "fold change (FC)", "setting": "[16]", "result": 0.6}, {"measurement": "IC50", "setting": "[17]", "result": 2.29, "unit": "µM"}, {"measurement": "inhibition (INH)", "setting": "[17]; human, a549, 1 h, time 1 hrs", "result": "Dose-dependent effect"}, {"measurement": "fold change (FC)", "setting": "[18]", "result": 1.7}, {"measurement": "fold change (FC)", "setting": "[19]", "result": 1.2}, {"measurement": "fold change (FC)", "setting": "[20]", "result": 0.9}, {"measurement": "fold change (FC)", "setting": "[21]", "result": 9.1}, {"measurement": "fold change (FC)", "setting": "[22]", "result": 2.3}, {"measurement": "IC50", "setting": "[23]", "result": 35.1, "unit": "µM"}, {"measurement": "viability at 72 h, 5 µM", "setting": "[24]", "result": "> 90", "unit": "%"}, {"measurement": "fold change (FC)", "setting": "[25]", "result": 1}, {"measurement": "fold change (FC)", "setting": "[26]", "result": 1.7}]}
